Measured values from publication PMC11106739, “Discovery and Derivatization of Tridecaptin Antibiotics with Altered Host Specificity and Enhanced Bioactivity” (ACS Chemical Biology, 2024).
≈ marks a conversion by molar mass, not a printed value. Where a SMILES comes first, the peptide text is derived from it. [ ]: non-standard residue; d: D form. The star is where a group is joined. d(aIle) = CC[C@H](C)[C@@H](N)C(=O)O; dDab = NCC[C@@H](N)C(=O)O; Octanoyl = CCCCCCCC(=O)*; Dab = NCC[C@H](N)C(=O)O

What was measured:
E. coli 1214245 = assay type: cell-based, Escherichia coli; details: 1214245, 20 h
Experimental: (§1) All minimum inhibitory concentrations (MICs) were determined according to the Clinical and Standards Laboratory Institute (CLSI) guidelines. In brief, agar plates were inoculated from glycerol stocks and incubated overnight at 35 °C. Peptide DMSO stocks were dispensed into 96-well round-bottom plates using a TECAN D300e dispenser. Colistin sulfate (Sigma-Aldrich) was dissolved in water and serially diluted in a cation-adjusted Mueller Hinton broth (10 μL per well). Final concentrations of the test compounds were 0.06 to 64 μg/mL. Inocula were prepared by direct colony suspension in NaCl at 0.5 MacFarland, which was further diluted 200-fold in cation-adjusted Mueller Hinton broth for a target inoculum of 2 × 10^5 colony forming units (CFUs)/mL. 100 μL portion of the prepared inoculum was added to each well of the prepared plates containing the test compounds. Plates were sealed with parafilm and incubated for 20 h at 35 °C. Images of all plates were recorded, and MIC was assessed visually.

E. coli ATCC 25922 = assay type: cell-based, Escherichia coli; details: ATCC 25922, 20 h
Experimental: as §1

E. coli 1220120 = assay type: cell-based, Escherichia coli; details: 1220120, 20 h
Experimental: as §1

A. baumannii HUMC1 = assay type: cell-based, Acinetobacter baumannii; details: HUMC1, 20 h
Experimental: as §1

A. baumannii IHMA 777621 = assay type: cell-based, Acinetobacter baumannii; details: IHMA 777621, 20 h
Experimental: as §1

A. baumannii ATCC 17978 = assay type: cell-based, Acinetobacter baumannii; details: ATCC 17978, 20 h
Experimental: as §1

E. faecium IHMA 890472 = assay type: cell-based, Enterococcus faecium; details: IHMA 890472, 20 h
Experimental: as §1

E. faecium ATCC 51559 = assay type: cell-based, Enterococcus faecium; details: ATCC 51559, 20 h
Experimental: as §1

Rabbit red blood cells = assay: Hemolysis assay; assay type: cell-based; details: rabbit red blood cells in PBS, 37 °C, 1 h, absorbance at 405 nm, normalization to the Triton X-100 control; 0.25 to 128 μg/mL tested
Experimental: Peptides, dissolved in DMSO, were dispensed into 96-well round-bottom microplates using a TECAN D300e dispenser and subsequently diluted with 100 μL of PBS. PBS or 2% Triton X-100 was used as negative and positive controls, respectively. Rabbit red blood cells (BioConcept) were diluted in PBS to a final concentration of 2%, and 100 μL was added to each well of the prepared 96-well plates. The final concentration of the test compounds was 0.25 to 128 μg/mL. Plates were incubated at 37 °C for 1 h and afterward subjected to centrifugation at 1000g for 5 min. Then, 30 μL of supernatant was transferred to a new round-bottom plate, and absorbance was measured at 405 nm (TECAN Infinite F200). EC50s were calculated after blank subtraction and normalization to the Triton control.

[1] = system: Gram-positive bacteria (Staphylococcus aureus, Enterococcus faecalis, Enterococcus faecium); assay: MIC, summary over Gram-positive strains; assay type: cell-based; details: at a concentration of 64 μg/mL; summary of Table 2
Experimental: as §1

P. aeruginosa 1218019 = assay type: cell-based, Pseudomonas aeruginosa; details: 1218019, 20 h
Experimental: as §1

P. aeruginosa 1226072 = assay type: cell-based, Pseudomonas aeruginosa; details: 1226072, 20 h
Experimental: as §1

P. aeruginosa PAO1 = assay type: cell-based, Pseudomonas aeruginosa; details: PAO1, 20 h
Experimental: as §1

K. pneumoniae 1227947 = assay type: cell-based, Klebsiella pneumoniae; details: 1227947, 20 h
Experimental: as §1

K. pneumoniae 1228586 = assay type: cell-based, Klebsiella pneumoniae; details: 1228586, 20 h
Experimental: as §1

K. pneumoniae ATCC 13883 = assay type: cell-based, Klebsiella pneumoniae; details: ATCC 13883, 20 h
Experimental: as §1

[2] = system: Gram-negative ESKAPE pathogens; assay type: cell-based; details: 20 h
Experimental: as §1

HepG2 cells = assay: Cytotoxicity determination (CellTiter-Glo); assay type: cell-based; details: HepG2, medium without serum, 24 h, normalization to the untreated control, 1 to 128 μg/mL tested
Experimental: HepG2 cells were grown in EMEM (Sigma) supplemented with 2 mM glutamine and 10% fetal bovine serum (Fisher) at 37 °C, 5% CO2. 20′000 cells per well were seeded into clear tissue culture-treated 96-well plates and incubated for 24 h. Peptides, dissolved in DMSO, were dispensed into 96 deep well plates (TECAN D300e dispenser) and diluted to a final concentration of 1 to 128 μg/mL using fresh medium without serum. The next day, the old media were removed from the cells, and 200 μL of the prepared compound dilutions was added per well. Plates were incubated for another 24 h before assessing the cell viability using the CellTiter-Glo kit (Promega) according to the manufacturer’s protocol. IC50s were calculated after normalization to the untreated control.

S. aureus UAMS-1625 = assay type: cell-based, Staphylococcus aureus; details: S. aureus UAMS-1625 (BV18); CLSI broth dilution, cation-adjusted Mueller Hinton broth, 20 h, 35 °C, read visually
Experimental: as §1

S. aureus 1126387 = assay type: cell-based, Staphylococcus aureus; details: 1126387, 20 h
Experimental: as §1

S. aureus ATCC 29213 = assay type: cell-based, Staphylococcus aureus; details: ATCC 29213, 20 h
Experimental: as §1

E. faecalis ATCC 29212 = assay type: cell-based, Enterococcus faecalis; details: ATCC 29212, 20 h
Experimental: as §1

ATCC 25922 = assay type: cell-based, Enterococcus faecalis; details: ATCC 25922, 20 h
Experimental: as §1

## CCCCCCCC(=O)N[C@@H](C(=O)N[C@H](CCN)C(=O)NCC(=O)N[C@H](CO)C(=O)N[C@H](Cc1c[nH]c2ccccc12)C(=O)N[C@@H](CO)C(=O)N[C@@H](CCN)C(=O)N[C@H](CCN)C(=O)N[C@@H](C)C(=O)N[C@@H](CCC(=O)O)C(=O)N[C@H](C(=O)N[C@@H](C(=O)N[C@@H](C)C(=O)O)[C@@H](C)CC)C(C)C)C(C)C [Oct-Ala9] (Octanoyl-[dV][dDab]G[dS][dW]S[Dab][dDab]AEV[d(aIle)]A-OH)
E. coli 1214245
  MIC: 16 µg/mL (≈ 11.1 µM)
E. coli ATCC 25922
  MIC: 16 µg/mL (≈ 11.1 µM)
E. coli 1220120
  MIC: 8 µg/mL (≈ 5.54 µM)
A. baumannii HUMC1
  MIC: >64 µg/mL
A. baumannii IHMA 777621
  MIC: >64 µg/mL
A. baumannii ATCC 17978
  MIC: >64 µg/mL
E. faecium IHMA 890472
  MIC: >64 µg/mL
E. faecium ATCC 51559
  MIC: >64 µg/mL
Rabbit red blood cells
  Hemolysis EC50: >128 µg/mL
[1]
  antibacterial activity against Gram-positive bacteria: no antibacterial activity
P. aeruginosa 1218019
  MIC: >64 µg/mL
P. aeruginosa 1226072
  MIC: 32 µg/mL (≈ 22.1 µM)
P. aeruginosa PAO1
  MIC: 64 µg/mL (≈ 44.3 µM)
K. pneumoniae 1227947
  MIC: 16 µg/mL (≈ 11.1 µM)
K. pneumoniae 1228586
  MIC: 8 µg/mL (≈ 5.54 µM)
K. pneumoniae ATCC 13883
  MIC: 8 µg/mL (≈ 5.54 µM)
[2]
  MICs, range over Gram-negative pathogens: 8 to 64 µg/mL
HepG2 cells
  IC50 on HepG2 w/o FCS: >128 µg/mL
S. aureus UAMS-1625
  MIC: >64 µg/mL
S. aureus 1126387
  MIC: >64 µg/mL
S. aureus ATCC 29213
  MIC: >64 µg/mL
E. faecalis ATCC 29212
  MIC: >64 µg/mL
ATCC 25922
  MIC: >64 µg/mL

## CCCCCCCC(=O)N[C@@H](C(=O)N[C@H](CCN)C(=O)NCC(=O)N[C@H](CO)C(=O)N[C@H](Cc1c[nH]c2ccccc12)C(=O)N[C@@H](CO)C(=O)N[C@@H](CCN)C(=O)N[C@H](CCN)C(=O)N[C@@H](CCN)C(=O)N[C@@H](CCC(=O)O)C(=O)N[C@H](C(=O)N[C@@H](C(=O)N[C@@H](C)C(=O)O)[C@@H](C)CC)C(C)C)C(C)C [Oct-Dab9] (Octanoyl-[dV][dDab]G[dS][dW]S[Dab][dDab][Dab]EV[d(aIle)]A-OH)
E. coli 1214245
  MIC: >64 µg/mL
E. coli ATCC 25922
  MIC: >64 µg/mL
E. coli 1220120
  MIC: >64 µg/mL
A. baumannii HUMC1
  MIC: >64 µg/mL
A. baumannii IHMA 777621
  MIC: >64 µg/mL
A. baumannii ATCC 17978
  MIC: >64 µg/mL
E. faecium IHMA 890472
  MIC: >64 µg/mL
E. faecium ATCC 51559
  MIC: >64 µg/mL
Rabbit red blood cells
  Hemolysis EC50: >128 µg/mL
[1]
  antibacterial activity against Gram-positive bacteria: no antibacterial activity
P. aeruginosa 1218019
  MIC: >64 µg/mL
P. aeruginosa 1226072
  MIC: 8 µg/mL (≈ 5.43 µM)
P. aeruginosa PAO1
  MIC: >64 µg/mL
K. pneumoniae 1227947
  MIC: >64 µg/mL
K. pneumoniae 1228586
  MIC: >64 µg/mL
K. pneumoniae ATCC 13883
  MIC: >64 µg/mL
[2]
  MICs, range over Gram-negative pathogens: 8 to 64 µg/mL
HepG2 cells
  IC50 on HepG2 w/o FCS: >128 µg/mL
S. aureus UAMS-1625
  MIC: >64 µg/mL
S. aureus 1126387
  MIC: >64 µg/mL
S. aureus ATCC 29213
  MIC: >64 µg/mL
E. faecalis ATCC 29212
  MIC: >64 µg/mL
ATCC 25922
  MIC: >64 µg/mL

## CCCCCCCC(=O)N[C@@H](C(=O)N[C@H](CCN)C(=O)NCC(=O)N[C@H](CO)C(=O)N[C@H](Cc1c[nH]c2ccccc12)C(=O)N[C@@H](CO)C(=O)N[C@@H](CCN)C(=O)N[C@H](CCN)C(=O)N[C@@H](Cc1c[nH]cn1)C(=O)N[C@@H](CCC(=O)O)C(=O)N[C@H](C(=O)N[C@@H](C(=O)N[C@@H](C)C(=O)O)[C@@H](C)CC)C(C)C)C(C)C [Oct-His9] (Octanoyl-[dV][dDab]G[dS][dW]S[Dab][dDab]HEV[d(aIle)]A-OH)
E. coli 1214245
  MIC: 16 µg/mL (≈ 10.6 µM)
E. coli ATCC 25922
  MIC: 16 µg/mL (≈ 10.6 µM)
E. coli 1220120
  MIC: 8 µg/mL (≈ 5.3 µM)
A. baumannii HUMC1
  MIC: >64 µg/mL
A. baumannii IHMA 777621
  MIC: >64 µg/mL
A. baumannii ATCC 17978
  MIC: >64 µg/mL
E. faecium IHMA 890472
  MIC: >64 µg/mL
E. faecium ATCC 51559
  MIC: >64 µg/mL
Rabbit red blood cells
  Hemolysis EC50: >128 µg/mL
P. aeruginosa 1218019
  MIC: 2 µg/mL (≈ 1.32 µM)
P. aeruginosa 1226072
  MIC: 4 µg/mL (≈ 2.65 µM)
P. aeruginosa PAO1
  MIC: 32 µg/mL (≈ 21.2 µM)
K. pneumoniae 1227947
  MIC: 32 µg/mL (≈ 21.2 µM)
K. pneumoniae 1228586
  MIC: 8 µg/mL (≈ 5.3 µM)
K. pneumoniae ATCC 13883
  MIC: 16 µg/mL (≈ 10.6 µM)
HepG2 cells
  IC50 on HepG2 w/o FCS: >128 µg/mL
S. aureus UAMS-1625
  MIC: >64 µg/mL
S. aureus 1126387
  MIC: >64 µg/mL
S. aureus ATCC 29213
  MIC: >64 µg/mL
E. faecalis ATCC 29212
  MIC: >64 µg/mL
ATCC 25922
  MIC: >64 µg/mL

## CCCCCCCC(=O)N[C@@H](C(=O)N[C@H](CCN)C(=O)NCC(=O)N[C@H](CO)C(=O)N[C@H](Cc1c[nH]c2ccccc12)C(=O)N[C@@H](CO)C(=O)N[C@@H](CCN)C(=O)N[C@H](CCN)C(=O)N[C@H](C(=O)N[C@@H](CCC(=O)O)C(=O)N[C@H](C(=O)N[C@@H](C(=O)N[C@@H](C)C(=O)O)[C@@H](C)CC)C(C)C)C(C)C)C(C)C [Oct-Val9] (Octanoyl-[dV][dDab]G[dS][dW]S[Dab][dDab]VEV[d(aIle)]A-OH)
E. coli 1214245
  MIC: 4 µg/mL (≈ 2.72 µM)
E. coli ATCC 25922
  MIC: 4 µg/mL (≈ 2.72 µM)
E. coli 1220120
  MIC: 4 µg/mL (≈ 2.72 µM)
A. baumannii HUMC1
  MIC: 32 µg/mL (≈ 21.7 µM)
A. baumannii IHMA 777621
  MIC: 32 µg/mL (≈ 21.7 µM)
A. baumannii ATCC 17978
  MIC: 32 µg/mL (≈ 21.7 µM)
E. faecium IHMA 890472
  MIC: >64 µg/mL
E. faecium ATCC 51559
  MIC: 64 µg/mL (≈ 43.5 µM)
Rabbit red blood cells
  Hemolysis EC50: >128 µg/mL
P. aeruginosa 1218019
  MIC: 16 µg/mL (≈ 10.9 µM)
P. aeruginosa 1226072
  MIC: 16 µg/mL (≈ 10.9 µM)
P. aeruginosa PAO1
  MIC: 64 µg/mL (≈ 43.5 µM)
K. pneumoniae 1227947
  MIC: 8 µg/mL (≈ 5.43 µM)
K. pneumoniae 1228586
  MIC: 8 µg/mL (≈ 5.43 µM)
K. pneumoniae ATCC 13883
  MIC: 2 µg/mL (≈ 1.36 µM)
HepG2 cells
  IC50 on HepG2 w/o FCS: >128 µg/mL
S. aureus UAMS-1625
  MIC: >64 µg/mL
S. aureus 1126387
  MIC: >64 µg/mL
S. aureus ATCC 29213
  MIC: >64 µg/mL
E. faecalis ATCC 29212
  MIC: 64 µg/mL (≈ 43.5 µM)
ATCC 25922
  MIC: >64 µg/mL
